Data set [1] is described as follows: Conductivity determination (Malvern Zetasizer Nano). It counts as physicochemical. The method, then: A range of standards having sodium chloride concentrations of 0, 75, 100, 150, 250 and 300 mM were prepared from a stock solution of 1500 mM sodium chloride by dilution in water for injection.
Immunogenic compositions were prepared using M72 with two N-terminal His residues according to the procedures provided in Example 8. To investigate the contribution from the antigen itself and any residual materials in the purified bulk, placebo lyophilisation cakes were also prepared by excluding the antigen component.
Using a Malvern Zetasizer Nano and 1.5 ml of each sample in folded capillary cells, a voltage of 30 to 150 V (determined automatically by the instrument) was applied and the conductivity determined.

In data set [2] the test system is chicken Red Blood cells (RBC). The data set is described as follows: QS21 lytic activity, haemolysis assay (limit test). Format: cell-based. The procedure: QS21 is known to lyse red blood cells (RBC).
QS21 lytic activity was measured by a haemolysis assay using chicken Red Blood cells (RBC). RBC were centrifuged at 550 g at 4° C. Supernatant was discarded. The pellet was carefully resuspended in PBS buffer to reach the initial volume and the same operation was repeated until supernatant was no longer red (generally 3 times). The pellet was stored at 4° C. for 3 to 4 days maximum if not used directly (and washed again the day it is used) or was diluted around 10 times in buffer if used the same day.
A QS21 dose range curve was prepared in ASA buffer (in salt or in sorbitol buffer following the ASA sample tested) extemporaneously and the adjuvant samples (containing a 50 ug or 90 ug equivalent of QS21 meaning the equivalent of 500 ul or 900 ul ASA) were prepared. Final volume was adjusted to 900 ul in standards and samples with adequate buffer (containing or not sorbitol as a function of the buffer of the sample tested). Due to its opalescence, ASA interferes with optical density (OD). ASA “blanks” were thus prepared and their OD was subtracted from the OD of ASA tested samples. Those blanks corresponded to the same ASA volume as the volume tested in samples, but adjusted to 1 ml with buffer. No RBC were added to these blanks. Standards and samples were then incubated with RBC (100 ul of diluted RBC added to 900 ul of standards and samples) for 30 minutes at room temperature (RT). Samples were then centrifuged 5 minutes at 900 g. Optical density at 540 nm was measured after centrifugation.
Determination of lytic activity was carried out by a limit test.
1. Limit of detection (LOD) was defined as the lowest concentration of QS21 leading to an OD: • Higher than the base level (OD>0.1) • Around three times higher than OD's buffer (the “0 ug” QS21) • In the ascendant part of the curve • Determined for each test.
2. QS21 lytic activity was held to be positive in the adjuvant samples if the OD for the adjuvant sample was greater than the ODLOD. […]

Data set [3] is described as follows: DLS antigen size of M72 at varied pH and NaCl (salting out). It counts as physicochemical. The procedure: Purified bulk antigen (M72 with two N-terminal His residues, SEQ ID No: 3, as prepared in Example 8) was diluted to a concentration of 100 ug/ml in three different buffers (10 mM phosphate buffer at pH 6.1, 20 mM Tris buffer at pH 7.5 and 20 mM Tris buffer at pH 8.5) containing final sodium chloride concentrations of 0, 50, 150, 300 and 450 mM.
Samples were analysed immediately (TO), stored overnight at 4° C. before analysis (T0 O/N) or stored at 25° C. for 24 hours before analysis (T24 h 25° C.).
DLS was performed using a Malvern Zetasizer Nano ZS from Malvern Instruments (UK). The instrument was operated using a laser wavelength of 633 nm and power of 4 mW. Scattered light was detected at 173° at a temperature of 22° C. The Z-average diameter (Zav) and polydispersity index (pi) are calculated by the instrument software.

The nature of data set [4]: DLS and nephelometry of Mtb72f at varied pH and NaCl. Format: physicochemical. As to conditions: pH 6.1, 7.5, 8.5; 0, 150, 450 mM sodium chloride; 24 hours at 4° C. or 25° C.
[5] abbreviates: pH 6.1, even in the absence of sodium chloride.
Where [6] appears, read: pH 7.5 or 8.5, over 24 hours at 25° C., particularly 0 or 50 mM sodium chloride.
[7] abbreviates: pH 7.5 or 8.5, sodium chloride increased to 150 mM or greater.

Where two headings read alike, the source gives them in different places.

In the case of `[Cl-].[Na+]` [sodium chloride], the Conductivity in data set [1] (sodium chloride standard solution 75 mM in water for injection) is reported as 8.2 mS/cm; in data set [1] (sodium chloride standard solution 100 mM) it was 10.7 mS/cm; in data set [1] (sodium chloride standard solution 150 mM) it was 15.6 mS/cm; in data set [1] (sodium chloride standard solution 250 mM), 23.9 mS/cm; in data set [1] (sodium chloride standard solution 300 mM), 30.0 mS/cm.
For the molecule QS21, the OD in data set [2] (0.5 ug QS21, 150 mM sodium chloride buffer, optical density at 540 nm, 30 minutes RT with RBC) is recorded as 0.052; in data set [2] (0.6 ug QS21, 150 mM sodium chloride buffer, 540 nm), 0.073; in data set [2] (0.7 ug QS21, 150 mM sodium chloride buffer, 540 nm), 0.091; in data set [2] (0.8 ug QS21, 150 mM sodium chloride buffer, 540 nm) it was 0.096; in data set [2] (0.9 ug QS21 (limit of detection), 150 mM sodium chloride buffer, 540 nm) it was 0.12; in data set [2] (1 ug QS21, 150 mM sodium chloride buffer, 540 nm), 0.195. Also, the OD in data set [2] (1.1 ug QS21, 150 mM sodium chloride buffer, 540 nm) came to 0.212; in data set [2] (1.2 ug QS21, 150 mM sodium chloride buffer, 540 nm), 0.348; in data set [2] (1.3 ug QS21, 150 mM sodium chloride buffer, 540 nm), 0.479; in data set [2] (1.4 ug QS21, 150 mM sodium chloride buffer, 540 nm), 0.612; in data set [2] (1.5 ug QS21, 150 mM sodium chloride buffer, 540 nm), 0.669; in data set [2] (2 ug QS21, 150 mM sodium chloride buffer, 540 nm), 1.139. Also, the OD is 1.294 in data set [2] (2.5 ug QS21, 150 mM sodium chloride buffer, 540 nm); 1.391 in data set [2] (3 ug QS21, 150 mM sodium chloride buffer, 540 nm); 1.416 in data set [2] (5 ug QS21, 150 mM sodium chloride buffer, 540 nm).

B1: M72: purified bulk antigen, M72 with two N-terminal His residues, SEQ ID No: 3 (protein)
chain: MHHTAASDNFQLSQGGQGFAIPIGQAMAIAGQIRSGGGSPTVHIGPTAFLGLGVVDNNGNGARVQRVVGSAPAASLGISTGDVITAVDGAPINSATAMADALNGHHPGDVISVTWQTKSGGTRTGNVTLAEGPPAEFMVDFGALPPEINSARMYAGPGSASLVAAAQMWDSVASDLFSAASAFQSVVWGLTVGSWIGSSAGLMVAAASPYVAWMSVTAGQAELTAAQVRVAAAAYETAYGLTVPPPVIAENRAELMILIATNLLGQNTPAIAVNEAEYGEMWAQDAAAMFGYAAATATATATLLPFEEAPEMTSAGGLLEQAAAVEEASDTAAANQLMNNVPQALQQLAQPTQGTTPSSKLGGLWKTVSPHRSPISNMVSMANNHMSMTNSGVSMTNTLSSMLKGFAPAAAAQAVQTAAQNGVRAMSSLGSSLGSSGLGGGVAANLGRAASVGSLSVPQAWAAANQAVTPAARALPLTSLTSAAERGPGQMLGGLPVGQMGARAGGGLSGVLRVPPRPYVMPHSPAAGDIAPPALSQDRFADFPALPLDPSAMVAQVGPQVVNINTKLGYNNAVGAGTGIVIDPNGVVLTNNHVIAGATDINAFSVGSGQTYGVDVVGYDRTQDVAVLQLRGAGGLPSAAIGGGVAVGEPVVAMGNSGGQGGTPRAVPGRVVALGQTVQASDSLTGAEETLNGLIQFDAAIQPGDAGGPVVNGLGQVVGMNTAAS
modifications: M72 fusion with 2 additional his residues
As for B1, the stability of antigenicity entry is, setting by setting: under setting [5], “not stable”; under setting [6], “relatively stable”. Moreover, the change in antigenicity entry under setting [7] is listed as “reduction”. For the same molecule, the “antigen size (DLS)” value in data set [3] (pH 6.1, 0 mM sodium chloride, T0) was determined as 35 nm; in data set [3] (pH 6.1, 50 mM sodium chloride, T0), 58 nm; in data set [3] (pH 6.1, 50 mM sodium chloride, after 24 hours at 25° C.), 79 nm. Besides, the “stability of antigen size” value in data set [3] (setting [5]) is reported as “not stable”; in data set [3] (setting [6]), “relatively stable”. Also, in data set [3] (setting [7]), the “change in antigen size” value was “clear increase”.

B2: Mtb72f: purified bulk antigen, Mtb72f with 6 his residues, SEQ ID No: 7 (protein)
chain: MHHHHHHTAASDNFQLSQGGQGFAIPIGQAMAIAGQIRSGGGSPTVHIGPTAFLGLGVVDNNGNGARVQRVVGSAPAASLGISTGDVITAVDGAPINSATAMADALNGHHPGDVISVTWQTKSGGTRTGNVTLAEGPPAEFMVDFGALPPEINSARMYAGPGSASLVAAAQMWDSVASDLFSAASAFQSVVWGLTVGSWIGSSAGLMVAAASPYVAWMSVTAGQAELTAAQVRVAAAAYETAYGLTVPPPVIAENRAELMILIATNLLGQNTPAIAVNEAEYGEMWAQDAAAMFGYAAATATATATLLPFEEAPEMTSAGGLLEQAAAVEEASDTAAANQLMNNVPQALQQLAQPTQGTTPSSKLGGLWKTVSPHRSPISNMVSMANNHMSMTNSGVSMTNTLSSMLKGFAPAAAAQAVQTAAQNGVRAMSSLGSSLGSSGLGGGVAANLGRAASVGSLSVPQAWAAANQAVTPAARALPLTSLTSAAERGPGQMLGGLPVGQMGARAGGGLSGVLRVPPRPYVMPHSPAAGDIAPPALSQDRFADFPALPLDPSAMVAQVGPQVVNINTKLGYNNAVGAGTGIVIDPNGVVLTNNHVIAGATDINAFSVGSGQTYGVDVVGYDRTQDVAVLQLRGAGGLPSAAIGGGVAVGEPVVAMGNSGGQGGTPRAVPGRVVALGQTVQASDSLTGAEETLNGLIQFDAAIQPGDSGGPVVNGLGQVVGMNTAAS
modifications: 6 His tag; Mtb72f fusion with 6 additional his residues
For the molecule B2, the “sensitivity of size (DLS and nephelometry) to salt and pH” value in data set [4] was “sensitive to salt concentration and pH”.
